From patent publication US4542027A, “Laidlomycin phenylcarbamate” (Syntex (U.S.A.) Inc., priority 1984, dated 1985)

Key:
[1] = Stability at 60° C. in methanol-water, acetate buffer; assay type: physicochemical
Experimental: Laidlomycin phenylcarbamate, laidlomycin isopopylcarbamate and two laidlomycin esters were prepared and their relative stability at 60° C. methanol-water, acetate buffer was determined. A complete list of the esters and carbamates which were tested under these conditions follows: […]

[2] = Stability in soybean millrun feed premix at 60° C.; assay type: physicochemical
Experimental: These materials were then stored at 60° C. and analyzed for starting material at one week. The premix composition is given in Table 5 and the stability data in Table 6.

[3] = tested on: Eimeria acervulina and Eimeria maxima; experiment: Anticoccidial activity in broiler chicks challenged with Eimeria acervulina and Eimeria maxima; assay type: in vivo; conditions: for Feed efficiency, feed/gain: 7 d; for Feed consumption / Gain / Final weight: cage of 12 chicks; for Final weight / Lesion scores, middle intestine / Lesion scores, upper intestine: 7 days after challenge; for Lesion scores, middle intestine / Lesion scores, upper intestine: scale 0 (least) to 4 (most severe)
Source text: Broiler chicks were reared, 12 per cage, in wire-floored battery cages under conditions which prevented extraneous coccidial infections. All chicks received a nonmedicated starter diet ad libitum until 8 days of age. From 8 days of age until the end of the study, chicks received the test diets which contained either O, 99, 121, 143 or 165 ppm of laidlomycin phenylcarbamate per kg of feed. Three replicate pens per treatment were used for all levels of experimental compounds tested.
At 10 days of age, birds were orally challenged with 200,000 oocycts of the coccidia, Eimeria acervulina, and 20,000 oocysts of Eimeria maxima per bird. The birds were weighed immediately preceding the coccidial challenge and again 7 days later. At 7 days following coccidial challenge, all birds were killed and lesions in the upper and middle sections of the intestinal tracts of six preselected birds per cage were scored on a scale of 0 to 4 based upon their number and severity. Feed present at the time of coccidial challenge and remaining 7 days later was used to determine the effects of compounds upon total feed consumption and feed efficiency.

rumen fluid [4] = experiment: Propionic acid production (VFA) in in vitro rumen fluid fermentation; assay type: cell-based, steer; parameters: Propionic acid production rate: unit not given here
Experimental: (§1) Two separate fermentation models were used to evaluate effects of laidlomycin and laidlomycin phenylcarbamate upon volatile fatty acids (VFA) and lactic acid production. Test compounds were solubilized in absolute ethanol at concentrations of 1 mg/ml and were serially diluted twofold in absolute ethanol through six additional concentrations. Aliquots of 200 μl were transferred to 18×150 mm test tubes, which were used as incubation vessels, and the ethanol was evaporated.
(§2) For both fermentation models rumen fluid from a rumen-fistulated steer, consuming a 100% alfalfa hay diet, was obtained before the morning feeding. The fluid was strained through four layers of cheesecloth, mixed with an equal volume of CO2 -saturated buffer, and 10 ml was transferred to each of the incubation vessels. All tubes were fitted with gas-release stoppers under an atmosphere of CO2 and were incubated in a shaking waterbath at 39° C. […] This medium, designed to be microbiologically nonselective, encouraged VFA production with no accumulation of lactic acid. Buffer used to study lactic acid accumulation (table 1) contained 150 mmol of glucose/liter and had little buffering capacity. This medium favored growth of lactic acid-producing bacteria and allowed rapid production of lactic acid coupled with a precipitous drop in pH from pH 6.2 to less than pH 5 during the course of an incubation.
(§3) Fermentation was terminated at 9 h for the VFA fermentations and at 5.5 h for the lactic acid fermentations by addition of 2 ml of 25% metaphosphoric acid to the incubation tubes. Aliquots were frozen overnight, thawed, centrifuged at 30,000 × g for 10 min and the resulting supernatants analyzed for either L(+)-lactic acid or VFA. The L(+)-lactic acid was analyzed via a specific enzymatic assay in which the concentration of lactic acid in the fermentation broth was quantified by the increase in absorbance of light at 340 nm when nicotinamide adenine dinucleotide was reduced by lactic acid with the aid of L(+)-lactic dehydrogenase. VFA were analyzed via gas chromatography using a Varian chromatograph equipped with a flame ionization detector. Acids were separated on a glass column (0.64×182.9 cm) packed with 10% SP-1200/1% H3 PO4 on Chromosorb-WAW®, 80-100 mesh. This column was obtained pre-packed from Supelco, Inc., Bellefont, Pennsylvania. Chromatographic conditions included a column temperature of 145° C., an injector temperature of 190° C., a detector temperature of 190° C., a carrier gas flow of 45 ml/min and an injection volume of 1 μl.
(§4) Net production rates of all acids were calculated by subtracting the concentration of acids in the incubation fluid before incubation from the concentration determined in each tube after incubation. Molar proportions of acetic, propionic, and butyric acids produced were calculated by dividing the production rate of individual acids by the sum of the production rates of the three acids. Data were analyzed by analysis of variance (SAS, 1979). Comparisons (Duncan's multiple range test) of individual means were made when treatment effects (P<0.05) were indicated.

rumen fluid [5] = experiment: L(+)-Lactic acid production in in vitro rumen fluid fermentation; assay type: cell-based, steer; parameters: Lactic acid production rate: unit not given here
Experimental: as §1, §2, §3, §4

[6] = in comparison with laidlomycin acylates
[7] = all non-zero concentrations, vs unmedicated

## CCC(=O)OC(C(C)C(=O)O)C(C)C1OC2(CCC(C)(C3CCC(C)(C4OC(C5OC(O)(COC(=O)Nc6ccccc6)C(C)CC5C)CC4C)O3)O2)CC(O)C1C (stereo not drawn) [Laidlomycin phenylcarbamate, laidlomycin phenylcarbamate]
[1]; 60° C., methanol-water, acetate buffer, read-out: t1/2 (converted)
  half-life: 32.7 days
[1]; [6]
  Stability in solution (in words): highly stable
[2]; [6]
  Stability in feed premixes (in words): highly stable
[2]; soybean millrun feed premix, 60° C., one week, soybean millrun premix, 10% (w/w)
  remaining at 168 h: 100%
[3]; 99 mg/kg of feed
  Feed efficiency, feed/gain: 2.21
  Feed consumption: 3.40 kg/7 d
  Gain: 1.54 kg/7 d
  Final weight: 3.86 kg
  Lesion scores, middle intestine: 1.43
  Lesion scores, upper intestine: 1.20
[3]; 121 mg/kg of feed
  Feed efficiency, feed/gain: 2.16
  Feed consumption: 3.19 kg/7 d
  Gain: 1.47 kg/7 d
  Final weight: 3.72 kg
  Lesion scores, middle intestine: 1.57
  Lesion scores, upper intestine: 1.23
[3]; 143 mg/kg of feed
  Feed efficiency, feed/gain: 2.19
  Feed consumption: 3.46 kg/7 d
  Gain: 1.58 kg/7 d
  Final weight: 3.97 kg
  Lesion scores, middle intestine: 1.47
  Lesion scores, upper intestine: 0.50
[3]; 165 mg/kg of feed
  Feed efficiency, feed/gain: 1.84
  Feed consumption: 3.47 kg/7 d
  Gain: 1.89 kg/7 d
  Final weight: 4.21 kg
  Lesion scores, middle intestine: 0.70
  Lesion scores, upper intestine: 0.66
[3]; all non-zero concentrations tested
  Protection against coccidiosis: protection against coccidiosis was afforded by all non-zero concentrations
[3]; [7]
  Lesion scores in the upper and middle intestines (in words): greatly reduced lesion scores in the upper and middle intestines
  Quantity of feed required per unit of gain (in words): halved the quantity of feed required per unit of gain
  Weight gain (in words): doubled weight gain
Rumen fluid [4]
  Propionate production enhancement (in words): surprisingly and unexpectedly high
Rumen fluid [4]; 0.31 μg/ml, 9 h
  Propionic acid production rate: 22.8
Rumen fluid [4]; 0.62 μg/ml, 9 h
  Propionic acid production rate: 23.4
Rumen fluid [4]; 1.25 μg/ml, 9 h
  Propionic acid production rate: 25.2
Rumen fluid [4]; 2.50 μg/ml, 9 h
  Propionic acid production rate: 25.7
Rumen fluid [4]; 5.00 μg/ml, 9 h
  Propionic acid production rate: 26.9
Rumen fluid [4]; 10.00 μg/ml, 9 h
  Propionic acid production rate: 27.0
Rumen fluid [4]; 20.00 μg/ml, 9 h
  Propionic acid production rate: 28.2
Rumen fluid [4]; 20.00 μg/ml, 9 h, 540 min
  Propionic acid production, percentage of control: 133 % of control
Rumen fluid [4]; 9 h, 0.31 μg/ml, 9 h, read-out: Propionic acid production, percentage of control
  activity at 0.31 µg/mL: 107%
Rumen fluid [4]; 9 h, 1.25 μg/ml, 9 h, read-out: Propionic acid production, percentage of control
  activity at 1.25 µg/mL: 118%
Rumen fluid [4]; 9 h, 2.50 μg/ml, 9 h, read-out: Propionic acid production, percentage of control
  activity at 2.5 µg/mL: 121%
Rumen fluid [4]; 9 h, 5.00 μg/ml, 9 h, read-out: Propionic acid production, percentage of control
  activity at 5 µg/mL: 126%
Rumen fluid [4]; 9 h, 10.00 μg/ml, 9 h, read-out: Propionic acid production, percentage of control
  activity at 10 µg/mL: 127%
Rumen fluid [4]; 9 h, 20.00 μg/ml, 9 h, read-out: Propionic acid production, percentage of control
  activity at 20 µg/mL: > 130%
Rumen fluid [4]; 9 h, read-out: Propionic acid production, percentage of control, 0.62 μg/ml, 9 h
  activity at 0.62 µg/mL: 110%
Rumen fluid [4]; over all concentrations
  Propionic acid production enhancement relative to laidlomycin: more potent than laidlomycin (P<0.05)
Rumen fluid [5]
  Lactic acid suppression (in words): surprisingly and unexpectedly high
Rumen fluid [5]; 0.31 μg/ml, 5.5 h
  Lactic acid production rate: 28.4
Rumen fluid [5]; 0.31 μg/ml, 5.5 h, read-out: Lactic acid production, percentage of control
  activity at 0.31 µg/mL: 102%
Rumen fluid [5]; 0.62 μg/ml, 5.5 h
  Lactic acid production rate: 27.7
Rumen fluid [5]; 0.62 μg/ml, 5.5 h, read-out: Lactic acid production, percentage of control
  activity at 0.62 µg/mL: 99%
Rumen fluid [5]; 1.25 μg/ml, 5.5 h
  Lactic acid production rate: 15.6
Rumen fluid [5]; 1.25 μg/ml, 5.5 h, read-out: Lactic acid production, percentage of control
  activity at 1.25 µg/mL: 56%
Rumen fluid [5]; 2.50 μg/ml, 5.5 h
  Lactic acid production rate: 6.1
  Lactic acid production, percentage of control: 21 % of control
Rumen fluid [5]; 2.50 μg/ml, 5.5 h, read-out: Lactic acid production, percentage of control
  activity at 2.5 µg/mL: 21%
Rumen fluid [5]; 5.00 μg/ml, 5.5 h
  Lactic acid production rate: 3.8
Rumen fluid [5]; 5.00 μg/ml, 5.5 h, read-out: Lactic acid production, percentage of control
  activity at 5 µg/mL: 13%
Rumen fluid [5]; 10.00 μg/ml, 5.5 h
  Lactic acid production rate: 4.0
Rumen fluid [5]; 10.00 μg/ml, 5.5 h, read-out: Lactic acid production, percentage of control
  activity at 10 µg/mL: 14%
Rumen fluid [5]; 20.00 μg/ml, 5.5 h
  Lactic acid production rate: 3.8
Rumen fluid [5]; 20.00 μg/ml, 5.5 h, read-out: Lactic acid production, percentage of control
  activity at 20 µg/mL: 13%
Rumen fluid [5]; over all concentrations tested
  Inhibition of lactic acid production relative to laidlomycin: superior to laidlomycin (P<0.05)
